Data taken from US9273041B2, “Compounds for the treatment of dyslipidemia and related diseases” (Cadila Healthcare Limited, priority 2012, dated 2016).

Target: PCSK9 (Homo sapiens, UniProt Q8NBP7)
Test: PCSK9-LDLR in vitro binding assay (solid phase, ELISA readout)
Conditions: read-out: % Inhibition PCSK 9; for inhibition at 10 µM: test compound concentration 10 μM; for inhibition at 100 µM: test compound concentration 100 μM; for inhibition at 1 µM: test compound concentration 1 μM
Description: The PCSK9-LDLR in vitro binding Assay is a quantitative solid phase binding assay between PCSK9 and recombinant LDLR. Plates were pre-coated with a recombinant LDLR-AB domain, which binds PCSK9. Test compound at different concentration was added to the PCSK9 and added to LDLR immobilized on the wells. The amount of bound PCSK9 is measured by binding it with biotinylated anti-His-tag monoclonal antibody, followed by binding with horseradish peroxidase conjugated streptavidin substrate. The color was quantified by ELISA reader at […] which reflects the relative amount of PCSK9 that binds to LDLR in presence and absence of the inhibitor. EC50 values were calculated by nonlinear regression analysis using graph pad prism software. Each concentration point represents values in duplicates.

Sequence of PCSK9 (Q8NBP7 153-692): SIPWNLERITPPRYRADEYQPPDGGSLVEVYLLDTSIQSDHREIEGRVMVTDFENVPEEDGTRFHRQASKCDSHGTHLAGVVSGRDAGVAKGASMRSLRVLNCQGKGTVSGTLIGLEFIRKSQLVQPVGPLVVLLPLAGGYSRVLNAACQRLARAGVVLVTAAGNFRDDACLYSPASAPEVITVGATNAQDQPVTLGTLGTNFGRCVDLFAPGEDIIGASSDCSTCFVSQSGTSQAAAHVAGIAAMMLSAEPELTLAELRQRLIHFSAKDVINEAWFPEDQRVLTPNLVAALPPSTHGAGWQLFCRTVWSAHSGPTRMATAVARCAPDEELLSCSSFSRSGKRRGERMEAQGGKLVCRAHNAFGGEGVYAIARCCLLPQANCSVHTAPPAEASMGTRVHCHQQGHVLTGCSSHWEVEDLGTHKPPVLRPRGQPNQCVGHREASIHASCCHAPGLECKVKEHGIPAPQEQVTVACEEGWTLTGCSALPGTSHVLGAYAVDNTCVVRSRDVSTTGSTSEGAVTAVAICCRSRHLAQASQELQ
Sequence of PCSK9 (Q8NBP7 31-152 partner limits assumed): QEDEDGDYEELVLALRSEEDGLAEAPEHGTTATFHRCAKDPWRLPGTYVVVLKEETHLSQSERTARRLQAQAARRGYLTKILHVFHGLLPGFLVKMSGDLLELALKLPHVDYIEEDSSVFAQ

## Cc1c(-c2ccc(OCC(=O)NCC3CCOCC3)cc2)noc1-c1ccccc1 [Example 1, 2-(4-(4-Methyl-5-phenylisoxazol-3-yl)phenoxy)-N-((tetrahydro-2H-pyran-4-yl)methyl)acetamide]
  inhibition at 10 µM: 42%
  inhibition at 100 µM: 68%

## Cc1onc(-c2ccc(OCC(=O)NCC3CCOCC3)cc2)c1-c1ccccc1 [Example 2, 2-(4-(5-methyl-4-phenylisoxazol-3-yl)phenoxy)-N-((tetrahydro-2H-pyran-4-yl)methyl)acetamide]
  inhibition at 10 µM: 9%
  inhibition at 100 µM: 33%

## Cc1c(-c2ccc(OCC(=O)NCC3CCOCC3)cc2)noc1-c1ccc(F)cc1 [Example 3, 2-(4-(5-(4-fluorophenyl)-4-methylisoxazol-3-yl)phenoxy)-N-((tetrahydro-2H-pyran-4-yl)methyl)acetamide]
  inhibition at 1 µM: 33%
  inhibition at 10 µM: 35%
  inhibition at 100 µM: 65%

## Cc1c(-c2ccc(OCC(=O)NCC3CCOCC3)cc2)noc1-c1ccc(Cl)cc1 [Example 4, 2-(4-(5-(4-chlorophenyl)-4-methylisoxazol-3-yl)phenoxy)-N-((tetrahydro-2H-pyran-4-yl)methyl)acetamide]
  inhibition at 10 µM: 36%
  inhibition at 100 µM: 29%

## Cc1c(-c2ccc(OCC(=O)NCC3CCOCC3)cc2)noc1-c1ccc(C(F)(F)F)cc1 [Example 5, 2-(4-(4-methyl-5-(4-(trifluoromethyl)phenyl)isoxazol-3-yl)phenoxy)-N-((tetrahydro-2H-pyran-4-yl)methyl)acetamide]
  inhibition at 1 µM: 49%
  inhibition at 10 µM: 67%
  inhibition at 100 µM: 71%

## Cc1ccc(-c2onc(-c3ccc(OCC(=O)NCC4CCOCC4)cc3)c2C)cc1 [Example 6, 2-(4-(4-methyl-5-(p-tolyl)isoxazol-3-yl)phenoxy)-N-((tetrahydro-2H-pyran-4-yl)methyl)acetamide]
  inhibition at 1 µM: 12%
  inhibition at 10 µM: 17%
  inhibition at 100 µM: 34%

## Cc1c(-c2ccc(OCC(=O)NCC3CCOCC3)cc2)nsc1-c1ccccc1 [Example 7, 2-(4-(4-methyl-5-phenylisothiazol-3-yl)phenoxy)-N-((tetrahydro-2H-pyran-4-yl)methyl)acetamide]
  inhibition at 1 µM: 22%
  inhibition at 10 µM: 22%
  inhibition at 100 µM: 55%

## COc1cc(-c2ccc(OCC(=O)NCC3CCOCC3)cc2)nn1-c1ccc(C(F)(F)F)cc1 [Example 8, 2-(4-(5-methoxy-1-(4-(trifluoromethyl)phenyl)-1H-pyrazol-3-yl)phenoxy)-N-((tetrahydro-2H-pyran-4-yl)methyl)acetamide]
  inhibition at 10 µM: 73%
  inhibition at 100 µM: 58%

## COc1cc(-c2ccc(OCC(=O)NCC3CCOCC3)cc2)nn1-c1ccc(F)cc1 [Example 9, 2-(4-(1-(4-fluorophenyl)-5-methoxy-1H-pyrazol-3-yl)phenoxy)-N-((tetrahydro-2H-pyran-4-yl)methyl)acetamide]
  inhibition at 1 µM: 37%
  inhibition at 10 µM: 41%
  inhibition at 100 µM: 64%

## COc1cc(-c2ccc(OCC(=O)NCC3CCOCC3)cc2)nn1-c1ccccc1 [Example 10, 2-(4-(5-methoxy-1-phenyl-1H-pyrazol-3-yl)phenoxy)-N-((tetrahydro-2H-pyran-4-yl)methyl)acetamide]
  inhibition at 1 µM: 33%
  inhibition at 10 µM: 40%
  inhibition at 100 µM: 56%

## Cc1nc(-c2ccccc2)sc1-c1ccc(OCC(=O)NCC2CCOCC2)cc1 [Example 11, 2-(4-(4-methyl-2-phenylthiazol-5-yl)phenoxy)-N-((tetrahydro-2H-pyran-4-yl)methyl)acetamide]
  inhibition at 1 µM: 30%
  inhibition at 10 µM: 44%
  inhibition at 100 µM: 53%

## Cc1nc(-c2ccc(C(F)(F)F)cc2)sc1-c1ccc(OCC(=O)NCC2CCOCC2)cc1 [Example 12, 2-(4-(4-methyl-2-(4-(trifluoromethyl)phenyl)thiazol-5-yl)phenoxy)-N-((tetrahydro-2H-pyran-4-yl)methyl)acetamide]
  inhibition at 10 µM: 33%
  inhibition at 100 µM: 36%

## Cc1nc(-c2ccc(F)cc2)sc1-c1ccc(OCC(=O)NCC2CCOCC2)cc1 [Example 13, 2-(4-(2-(4-fluorophenyl)-4-methylthiazol-5-yl)phenoxy)-N-((tetrahydro-2H-pyran-4-yl)methyl)acetamide]
  inhibition at 1 µM: 17%
  inhibition at 10 µM: 30%
  inhibition at 100 µM: 78%

## Cc1oc(-c2ccccc2)nc1-c1ccc(OCC(=O)NCC2CCOCC2)cc1 [Example 17, 2-(4-(5-methyl-2-phenyloxazol-4-yl)phenoxy)-N-((tetrahydro-2H-pyran-4-yl)methyl)acetamide]
  inhibition at 1 µM: 40%
  inhibition at 10 µM: 38%
  inhibition at 100 µM: 63%

## Cc1oc(-c2ccc(C(F)(F)F)cc2)nc1-c1ccc(OCC(=O)NCC2CCOCC2)cc1 [Example 18, 2-(4-(5-methyl-2-(4-(trifluoromethyl)phenyl)oxazol-4-yl)phenoxy)-N-((tetrahydro-2H-pyran-4-yl)methyl)acetamide]
  inhibition at 10 µM: 53%

## Cc1oc(-c2ccc(F)cc2)nc1-c1ccc(OCC(=O)NCC2CCOCC2)cc1 [Example 19, 2-(4-(2-(4-fluorophenyl)-5-methyloxazol-4-yl)phenoxy)-N-((tetrahydro-2H-pyran-4-yl)methyl)acetamide]
  inhibition at 10 µM: 24%
  inhibition at 100 µM: 50%

## Cc1ccc(-c2nc(-c3ccc(OCC(=O)NCC4CCOCC4)cc3)c(C)o2)cc1 [Example 22, 2-(4-(5-methyl-2-(p-tolyl)oxazol-4-yl)phenoxy)-N-((tetrahydro-2H-pyran-4-yl)methyl)acetamide]
  inhibition at 1 µM: 27%
  inhibition at 10 µM: 30%
  inhibition at 100 µM: 54%

## Cc1oc(-c2cccnc2)nc1-c1ccc(OCC(=O)NCC2CCOCC2)cc1 [Example 24, 2-(4-(5-methyl-2-(pyridin-3-yl)oxazol-4-yl)phenoxy)-N-((tetrahydro-2H-pyran-4-yl)methyl)acetamide]
  inhibition at 1 µM: 49%
  inhibition at 10 µM: 76%
  inhibition at 100 µM: 35%

## O=C(COc1ccc(-c2noc(-c3ccc(C(F)(F)F)cc3)n2)cc1)NCC1CCOCC1 [Example 25, N-((tetrahydro-2H-pyran-4-yl)methyl)-2-(4-(5-(4-(trifluoromethyl)phenyl)-1,2,4-oxadiazol-3-yl)phenoxy)acetamide]
  inhibition at 1 µM: 37%
  inhibition at 10 µM: 50%
  inhibition at 100 µM: 64%

## O=C(COc1ccc(-c2nnc(-c3ccc(F)cc3)o2)cc1)NCC1CCOCC1 [Example 30, 2-(4-(5-(4-fluorophenyl)-1,3,4-oxadiazol-2-yl)phenoxy)-N-((tetrahydro-2H-pyran-4-yl)methyl)acetamide]
  inhibition at 1 µM: 19%
  inhibition at 10 µM: 20%
  inhibition at 100 µM: 32%

## O=C(COc1ccc(-c2nnc(-c3ccc(C(F)(F)F)cc3)o2)cc1)NCC1CCOCC1 [Example 31, N-((tetrahydro-2H-pyran-4-yl)methyl)-2-(4-(5-(4-(trifluoromethyl)phenyl)-1,3,4-oxadiazol-2-yl)phenoxy)acetamide]
  inhibition at 1 µM: 25%
  inhibition at 10 µM: 34%
  inhibition at 100 µM: 36%

## COc1ccc(-c2nnc(-c3ccc(OCC(=O)NCC4CCOCC4)cc3)o2)cc1 [Example 32, 2-(4-(5-(4-methoxyphenyl)-1,3,4-oxadiazol-2-yl)phenoxy)-N-((tetrahydro-2H-pyran-4-yl)methyl)acetamide]
  inhibition at 1 µM: 13%
  inhibition at 10 µM: 23%
  inhibition at 100 µM: 30%

## O=C(COc1ccc(C2CN(c3ccc(F)cc3)C(=O)O2)cc1)NCC1CCOCC1 (stereo not drawn) [Example 35, 2-(4-(3-(4-fluorophenyl)-2-oxooxazolidin-5-yl)phenoxy)-N-((tetrahydro-2H-pyran-4-yl)methyl)acetamide]
  inhibition at 1 µM: 14%
  inhibition at 10 µM: 54%
  inhibition at 100 µM: 61%

## COc1ccc(N2CC(c3ccc(OCC(=O)NCC4CCOCC4)cc3)OC2=O)cc1 (stereo not drawn) [Example 36, 2-(4-(3-(4-methoxyphenyl)-2-oxooxazolidin-5-yl)phenoxy)-N-((tetrahydro-2H-pyran-4-yl)methyl)acetamide]
  inhibition at 1 µM: 47%
  inhibition at 10 µM: 24%
  inhibition at 100 µM: 61%

## O=C(COc1ccc(-n2cc(-c3ccccc3)nn2)cc1)NCC1CCOCC1 [Example 37, 2-(4-(4-phenyl-1H-1,2,3-triazol-1-yl)phenoxy)-N-((tetrahydro-2H-pyran-4-yl)methyl)acetamide]
  inhibition at 1 µM: 25%
  inhibition at 10 µM: 58%
  inhibition at 100 µM: 78%

## COc1cc(-c2ccc(OCC(=O)NCC3CCOCC3)cc2)nn1Cc1ccc(C(F)(F)F)cc1 [Example 38, 2-(4-(5-methoxy-1-(4-(trifluoromethyl)benzyl)-1H-pyrazol-3-yl)phenoxy)-N-((tetrahydro-2H-pyran-4-yl)methyl)acetamide]
  inhibition at 1 µM: 27%
  inhibition at 10 µM: 39%
  inhibition at 100 µM: 59%

## Cc1nc(-c2ccc(OCC(=O)NCC3CCOCC3)cc2)oc1C [Example 39, 2-(4-(4,5-dimethyloxazol-2-yl)phenoxy)-N-((tetrahydro-2H-pyran-4-yl)methyl)acetamide]
  inhibition at 10 µM: 9%
  inhibition at 100 µM: 15%
